Data on eight compounds can be found in PubChem BioAssay (NCI).

Molecules are shown by their SMILES.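 Method: 48-hour compound exposure of cells in 96-well plates, five concentrations, linear interpolation of endpoints. At the GI50, growth is halved. TGI marks complete inhibition of growth.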

Test systems include A498 renal; EKVX NSCLC; HL-60(TB) leukemia; MDA-MB-435; NCI-H460 lung; RXF 393 renal; SK-OV-3 ovarian; SR leukemia; UACC-62 melanoma; UO-31 renal.
What all share (assay): inhibition of tumour cell growth, NCI panel, 48 h

As to `COc1cc(C(=O)/C(C)=C/c2c[nH]c3ccccc23)cc(OC)c1OC`, the GI50 in the assay on A498 renal was 0.0025 µM; in the assay with EKVX NSCLC it was 0.0053 µM; in the assay on HL-60(TB) leukemia, 0.00228 µM; in the assay with MDA-MB-435, 0.00232 µM; with NCI-H460 lung, 0.00369 µM; in the assay on RXF 393 renal it was 1.81 µM. For the same compound, the GI50 with SK-OV-3 ovarian was 0.00768 µM; in the assay on SR leukemia, 0.00333 µM; in the assay on UO-31 renal it was 0.00796 µM. The TGI in the assay on A498 renal is 0.00916 µM; in the assay on EKVX NSCLC it was greater than 100 µM; with HL-60(TB) leukemia, 0.00652 µM; in the assay with MDA-MB-435 it was 0.00633 µM; in the assay on NCI-H460 lung it was greater than 100 µM; in the assay on RXF 393 renal, greater than 100 µM. Besides, the TGI in the assay with SK-OV-3 ovarian was 76.8 µM; with UACC-62 melanoma it was 14.1 µM; in the assay with UO-31 renal, greater than 100 µM.

Consider `COc1cc(Nc2nccc(Nc3ccc4c(C)[nH]nc4c3)n2)cc(OC)c1OC`, for which the GI50 was 0.253 µM in the assay with A498 renal; 1.87 µM in the assay on EKVX NSCLC; 3.31 µM with HL-60(TB) leukemia; 0.666 µM in the assay with MDA-MB-435; 1.29 µM in the assay on NCI-H460 lung; 0.683 µM in the assay with RXF 393 renal. In addition, the GI50 with SK-OV-3 ovarian is 1.53 µM; in the assay with SR leukemia it was 1.42 µM; with UACC-62 melanoma, 1.08 µM; in the assay with UO-31 renal, 0.842 µM. Further, the TGI in the assay with A498 renal is 1.94 µM; in the assay with EKVX NSCLC, 9.19 µM; in the assay with HL-60(TB) leukemia, 9.04 µM; with MDA-MB-435, 3.09 µM; with NCI-H460 lung, 5.3 µM; in the assay with RXF 393 renal, 3.21 µM. For the same compound, the TGI in the assay with SK-OV-3 ovarian is 6.64 µM; in the assay on SR leukemia it was greater than 15.3 µM; with UACC-62 melanoma, 4.82 µM; in the assay with UO-31 renal, 5.19 µM.

For the compound `COc1ccc(CN(C)c2ccc(CO)c(Cl)c2)cc1`, the GI50 in the assay on A498 renal is 0.0416 µM; in the assay with EKVX NSCLC, 22 µM; in the assay with HL-60(TB) leukemia, 17.7 µM; in the assay on MDA-MB-435 it was 24.2 µM; with NCI-H460 lung it was 1.04 µM; in the assay on RXF 393 renal it was 10.9 µM. In addition, the GI50 in the assay on SK-OV-3 ovarian was 18.8 µM; in the assay on SR leukemia, 27 µM; in the assay on UACC-62 melanoma it was 0.274 µM; in the assay with UO-31 renal, 9.38 µM. The TGI in the assay on A498 renal was 0.178 µM; with EKVX NSCLC it was greater than 91.6 µM; with HL-60(TB) leukemia, 64.8 µM; in the assay on MDA-MB-435, 95.4 µM; in the assay on NCI-H460 lung it was 15 µM; with RXF 393 renal, greater than 79.8 µM. Moreover, the TGI in the assay with SK-OV-3 ovarian was 88.8 µM; in the assay on SR leukemia it was greater than 100 µM; in the assay on UACC-62 melanoma, 2.24 µM; with UO-31 renal, 92.2 µM.

As to `C=C1C(=O)C23CC1C[C@H](OC(C)=O)[C@H]2C1(C)C(OC(C)=O)C[C@H](O)C(C)(C)[C@H]1C(=O)[C@@H]3OC(C)=O` (stereo partly drawn), the TGI with A498 renal worked out at 29.7 µM; in the assay on EKVX NSCLC, 15.7 µM; in the assay with HL-60(TB) leukemia, 4.47 µM; in the assay on MDA-MB-435, 11.4 µM; with NCI-H460 lung it was 33.4 µM; with RXF 393 renal, 9.75 µM. Further, the TGI with SK-OV-3 ovarian was 32 µM; in the assay with SR leukemia, greater than 24.7 µM; with UACC-62 melanoma it was 9.51 µM; with UO-31 renal it was 9.75 µM.

Turning to `COc1cc(/C=C/C(=O)CC(=O)/C=C/c2cc(OC)c(OC)c(OC)c2)cc(OC)c1OC`, the GI50 is 10.4 µM in the assay on A498 renal; 3.59 µM in the assay with EKVX NSCLC; 5.15 µM in the assay on HL-60(TB) leukemia; 2.52 µM in the assay on MDA-MB-435; 3.94 µM with NCI-H460 lung; 3.09 µM in the assay with RXF 393 renal. Besides, the GI50 with SK-OV-3 ovarian is 12 µM; in the assay on SR leukemia it was 2.19 µM; in the assay on UACC-62 melanoma, 3.17 µM; with UO-31 renal, 3 µM. Moreover, the TGI in the assay with A498 renal was 42.9 µM; in the assay with EKVX NSCLC it was 40.9 µM; in the assay on HL-60(TB) leukemia, greater than 100 µM; in the assay with MDA-MB-435 it was 7.23 µM; in the assay with NCI-H460 lung, 18.4 µM; with RXF 393 renal it was 8.84 µM. Moreover, the TGI with SK-OV-3 ovarian was 67.6 µM; in the assay with SR leukemia it was 9.55 µM; with UACC-62 melanoma it was 13.4 µM; in the assay with UO-31 renal, 13.1 µM.

Take `CC(O)c1cccc(NCc2c3ccccc3c(=O)n3c2oc2ccccc23)c1` (stereo not drawn): the GI50 was 1.61 µM in the assay on A498 renal; 3.87 µM with EKVX NSCLC; greater than 100 µM with HL-60(TB) leukemia; 18.4 µM in the assay on MDA-MB-435; greater than 100 µM in the assay on NCI-H460 lung; 22.5 µM in the assay with RXF 393 renal. Moreover, the GI50 with SK-OV-3 ovarian is 4.42 µM; with SR leukemia it was 3.39 µM; with UACC-62 melanoma, 5.45 µM; with UO-31 renal, 3.58 µM. The TGI with A498 renal is 4.93 µM; in the assay on EKVX NSCLC, 19.3 µM; with HL-60(TB) leukemia, greater than 100 µM; with MDA-MB-435, greater than 100 µM; in the assay with NCI-H460 lung, greater than 100 µM; in the assay on RXF 393 renal, 67.8 µM. Besides, the TGI in the assay with SK-OV-3 ovarian is 30.6 µM; in the assay on SR leukemia, 12.1 µM; in the assay with UACC-62 melanoma, 22.3 µM; in the assay with UO-31 renal, 28.1 µM.

Take `CC(C)=CCCC(C)c1ccc(C)c2c1OCN(CC1CCNCC1)C2` (stereo not drawn): the GI50 in the assay on A498 renal was 12.3 µM; with EKVX NSCLC it was 20.7 µM; with HL-60(TB) leukemia, 3.9 µM; in the assay on MDA-MB-435, 6.48 µM; in the assay with NCI-H460 lung it was 5.36 µM; with RXF 393 renal, 9.2 µM. In addition, the GI50 in the assay on SK-OV-3 ovarian was 16.7 µM; in the assay on SR leukemia, 2.79 µM; in the assay on UACC-62 melanoma, 15.5 µM; in the assay with UO-31 renal it was 12.8 µM. Moreover, the TGI was determined as 26 µM with A498 renal; 66.9 µM in the assay on EKVX NSCLC; 18.9 µM in the assay with HL-60(TB) leukemia; 20.9 µM in the assay on MDA-MB-435; 16.6 µM in the assay with NCI-H460 lung; 21.7 µM in the assay on RXF 393 renal. Besides, the TGI with SK-OV-3 ovarian came to 31.1 µM; with SR leukemia, 9.83 µM; in the assay with UACC-62 melanoma, 29.9 µM; with UO-31 renal, 27.3 µM.

`O=S(=O)(NC1=NCCN1C(=S)SN1CCn2c1nsc2=S)c1ccc(Br)cc1`: the GI50 was 33.7 µM in the assay with A498 renal; 2.39 µM in the assay with EKVX NSCLC; 24.3 µM with HL-60(TB) leukemia; 27.6 µM in the assay on MDA-MB-435; 38.9 µM with NCI-H460 lung; 17.8 µM with RXF 393 renal. For the same compound, the GI50 in the assay with SK-OV-3 ovarian is 37.8 µM; in the assay on SR leukemia it was 24.2 µM; in the assay on UACC-62 melanoma, 25.2 µM; with UO-31 renal, 61 µM. Besides, the TGI in the assay with A498 renal was greater than 100 µM; in the assay on EKVX NSCLC, 95.1 µM; in the assay with HL-60(TB) leukemia, 60.1 µM; in the assay on MDA-MB-435 it was greater than 100 µM; in the assay with NCI-H460 lung, greater than 100 µM; in the assay on RXF 393 renal, 51.4 µM. The TGI in the assay on SK-OV-3 ovarian was greater than 100 µM; in the assay with SR leukemia, 74.1 µM; in the assay with UACC-62 melanoma, 94.3 µM; in the assay with UO-31 renal it was greater than 100 µM.
